According to the supplement of paper PMC10627819:

Columns and labels:
B. subtilis 168 [1] = experiment: fitness (endpoint OD595 vs no drug) (fraction); higher = more growth
Method in brief: (§1)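 At 37 °C, bacteria in TSB, LB Lennox or CY were grown in 384-well plates from a starting OD595 of 0.01. OD595 was measured every 30 min for 14 h, with the first reading used as background. Fitness is the optical density at the switch to stationary phase as a fraction of the robust mean of no-drug control wells, capped at 1.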

S. pneumoniae D39V [2] = experiment: as above
Method in brief: as §1

S. aureus DSM 20231 [3] = experiment: as above
Method in brief: as §1

B. subtilis 168 [4] = experiment: Bliss interaction score (quartile over a dose matrix) (fitness difference); higher = more antagonism (negative = synergy)
Method in brief: (§2)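 Combination data were used to infer fitness under each single drug. Fitness is the OD595 at entry into stationary phase divided by the robust mean of the plate's no-drug wells, with a cap of 1. The Bliss score is the observed minus the expected product fitness, summarised by quartiles over technical, biological and donor/recipient replicates.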

S. pneumoniae D39V [5] = experiment: as above
Method in brief: as §2

S. aureus Newman = experiment: as above
Method in brief: as §2

S. aureus DSM 20231 [6] = experiment: as above
Method in brief: as §2
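Wherever Bliss interaction score (quartile over a dose matrix) is given: first quartile when negative (synergy) and third quartile when positive (antagonism).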

CCC[C@@H]1C[C@@H](C(=O)N[C@@H]([C@H]2O[C@H](SC)[C@H](O)[C@@H](O)[C@H]2O)[C@@H](C)O)N(C)C1 [Lincomycin] + CN(N=O)C(=O)N[C@@H](C=O)[C@@H](O)[C@H](O)[C@H](O)CO [Streptozotocin]
fitness
Conditions | first compound 0.1 µg/mL | first compound 0.2 µg/mL | first compound 0.215 µg/mL | first compound 0.4 µg/mL | first compound 0.43 µg/mL | first compound 0.86 µg/mL
B. subtilis 168 [1], partner 0.15 µg/mL | 0.957 | 0.99 | – | 0.994 | – | –
B. subtilis 168 [1], partner 0.3 µg/mL | 0.966 | 0.93 | – | 0.997 | – | –
B. subtilis 168 [1], partner 0.6 µg/mL | 0.956 | 0.953 | – | 0.99 | – | –
S. aureus DSM 20231 [3], partner 0.15 µg/mL | 0.804 | 0.635 | – | 0.282 | – | –
S. aureus DSM 20231 [3], partner 0.3 µg/mL | 0.796 | 0.611 | – | 0.267 | – | –
S. aureus DSM 20231 [3], partner 0.6 µg/mL | 0.708 | 0.565 | – | 0.177 | – | –
S. pneumoniae D39V [2], partner 1.2 µg/mL | – | – | 0.752 | – | 0.664 | 0.148
S. pneumoniae D39V [2], partner 2.4 µg/mL | – | – | 0.754 | – | 0.661 | 0.261
S. pneumoniae D39V [2], partner 4.8 µg/mL | – | – | 0.793 | – | 0.705 | 0.237

fitness, S. pneumoniae D39V [2], one replicate
Conditions | first compound 0.2 µg/mL | first compound 0.4 µg/mL | first compound 0.8 µg/mL
partner 1.2 µg/mL | 0.767 | 0.683 | 0.181
partner 2.4 µg/mL | 0.734 | 0.683 | 0.273
partner 4.8 µg/mL | 0.639 | 0.553 | 0

Conditions | Bliss interaction score
B. subtilis 168 [4] | -0.0171
S. aureus DSM 20231 [6] | 0.0558
S. aureus Newman | 0.125
S. pneumoniae D39V [5] | -0.138

CCC[C@@H]1C[C@@H](C(=O)N[C@@H]([C@H]2O[C@H](SC)[C@H](O)[C@@H](O)[C@H]2O)[C@@H](C)O)N(C)C1 [Lincomycin] + CN[C@@H]1[C@H](O)[C@H](NC)[C@H]2O[C@@]3(O)C(=O)C[C@@H](C)O[C@H]3O[C@@H]2[C@H]1O [Spectinomycin]
fitness
Conditions | partner 2 µg/mL | partner 4 µg/mL | partner 8 µg/mL | partner 16 µg/mL
B. subtilis 168 [1], first compound 0.1 µg/mL | 0.923 | 0.923 | 0.849 | –
B. subtilis 168 [1], first compound 0.2 µg/mL | 0.937 | 0.929 | 0.847 | –
B. subtilis 168 [1], first compound 0.4 µg/mL | 0.907 | 0.859 | 0.861 | –
S. aureus DSM 20231 [3], first compound 0.1 µg/mL | – | 0.819 | 0.732 | 0.566
S. aureus DSM 20231 [3], first compound 0.2 µg/mL | – | 0.581 | 0.54 | 0.351
S. aureus DSM 20231 [3], first compound 0.4 µg/mL | – | – | – | 0.122
S. pneumoniae D39V [2], first compound 0.215 µg/mL | – | 0.777 | 0.787 | 0.721
S. pneumoniae D39V [2], first compound 0.43 µg/mL | – | 0.688 | 0.713 | 0.616
S. pneumoniae D39V [2], first compound 0.86 µg/mL | – | 0.268 | 0.286 | 0.158

fitness, one replicate
Conditions | first compound 0.1 µg/mL | first compound 0.2 µg/mL | first compound 0.4 µg/mL | first compound 0.8 µg/mL
S. aureus DSM 20231 [3], partner 32 µg/mL | 0.377 | 0.176 | 0.0758 | –
S. aureus DSM 20231 [3], partner 64 µg/mL | 0.0561 | 0.042 | 0.0347 | –
S. pneumoniae D39V [2], partner 4 µg/mL | – | 0.777 | 0.659 | 0.412
S. pneumoniae D39V [2], partner 8 µg/mL | – | 0.752 | 0.63 | 0.35

Conditions | Bliss interaction score
B. subtilis 168 [4] | -0.0786
S. aureus DSM 20231 [6] | -0.175
S. aureus Newman | -0.195
S. pneumoniae D39V [5] | -0.0914

CCC[C@@H]1C[C@@H](C(=O)N[C@@H]([C@H]2O[C@H](SC)[C@H](O)[C@@H](O)[C@H]2O)[C@@H](C)O)N(C)C1 [Lincomycin] + COc1c(N2C[C@@H]3CCCN[C@@H]3C2)c(F)cc2c(=O)c(C(=O)O)cn(C3CC3)c12 [Moxifloxacin]
fitness, one replicate
Conditions | first compound 0.1 µg/mL | first compound 0.2 µg/mL | first compound 0.4 µg/mL
B. subtilis 168 [1], partner 0.0312 µg/mL | 0.0564 | 0.039 | –
B. subtilis 168 [1], partner 0.0625 µg/mL | 0.0916 | 0.06 | –
B. subtilis 168 [1], partner 0.125 µg/mL | 0.0846 | 0.0751 | –
S. aureus DSM 20231 [3], partner 0.06 µg/mL | 0.661 | 0.677 | 0.562
S. aureus DSM 20231 [3], partner 0.12 µg/mL | 0.498 | 0.527 | 0.448

Conditions | fitness
B. subtilis 168 [1], first compound 0.1 µg/mL, partner 2 µg/mL | 0.0333
B. subtilis 168 [1], first compound 0.1 µg/mL, partner 4 µg/mL | 0.0228
B. subtilis 168 [1], first compound 0.1 µg/mL, partner 8 µg/mL | 0.0229
B. subtilis 168 [1], first compound 0.2 µg/mL, partner 2 µg/mL | 0.0297
B. subtilis 168 [1], first compound 0.2 µg/mL, partner 4 µg/mL | 0.0322
B. subtilis 168 [1], first compound 0.2 µg/mL, partner 8 µg/mL | 0.0239
B. subtilis 168 [1], first compound 0.4 µg/mL, partner 0.0312 µg/mL | 0.0344
B. subtilis 168 [1], first compound 0.4 µg/mL, partner 0.0625 µg/mL | 0.036
B. subtilis 168 [1], first compound 0.4 µg/mL, partner 0.125 µg/mL | 0.0478
B. subtilis 168 [1], first compound 0.4 µg/mL, partner 2 µg/mL | 0.0261
B. subtilis 168 [1], first compound 0.4 µg/mL, partner 4 µg/mL | 0.0257
B. subtilis 168 [1], first compound 0.4 µg/mL, partner 8 µg/mL | 0.0306
B. subtilis 168 [1], first compound 0.8 µg/mL, partner 0.0312 µg/mL | 0.0429
B. subtilis 168 [1], first compound 0.8 µg/mL, partner 0.0625 µg/mL | 0.049
B. subtilis 168 [1], first compound 0.8 µg/mL, partner 0.125 µg/mL | 0.0451
B. subtilis 168 [1], first compound 1.6 µg/mL, partner 0.0312 µg/mL | 0.0535
B. subtilis 168 [1], first compound 1.6 µg/mL, partner 0.0625 µg/mL | 0.0507
B. subtilis 168 [1], first compound 1.6 µg/mL, partner 0.125 µg/mL | 0.0559
S. aureus DSM 20231 [3], first compound 0.1 µg/mL, partner 0.0075 µg/mL | 0.823
S. aureus DSM 20231 [3], first compound 0.1 µg/mL, partner 0.015 µg/mL | 0.765
S. aureus DSM 20231 [3], first compound 0.1 µg/mL, partner 0.03 µg/mL | 0.671
S. aureus DSM 20231 [3], first compound 0.2 µg/mL, partner 0.0075 µg/mL | 0.737
S. aureus DSM 20231 [3], first compound 0.2 µg/mL, partner 0.015 µg/mL | 0.715
S. aureus DSM 20231 [3], first compound 0.2 µg/mL, partner 0.03 µg/mL | 0.689
S. aureus DSM 20231 [3], first compound 0.4 µg/mL, partner 0.0075 µg/mL | 0.301
S. aureus DSM 20231 [3], first compound 0.4 µg/mL, partner 0.015 µg/mL | 0.278
S. aureus DSM 20231 [3], first compound 0.4 µg/mL, partner 0.03 µg/mL | 0.359
S. pneumoniae D39V [2], first compound 0.2 µg/mL, partner 0.005 µg/mL | 0.749
S. pneumoniae D39V [2], first compound 0.2 µg/mL, partner 0.01 µg/mL | 0.829
S. pneumoniae D39V [2], first compound 0.2 µg/mL, partner 0.02 µg/mL | 0.757
S. pneumoniae D39V [2], first compound 0.215 µg/mL, partner 0.0037 µg/mL | 0.742
S. pneumoniae D39V [2], first compound 0.215 µg/mL, partner 0.0075 µg/mL | 0.769
S. pneumoniae D39V [2], first compound 0.215 µg/mL, partner 0.015 µg/mL | 0.751
S. pneumoniae D39V [2], first compound 0.4 µg/mL, partner 0.005 µg/mL | 0.675
S. pneumoniae D39V [2], first compound 0.4 µg/mL, partner 0.01 µg/mL | 0.704
S. pneumoniae D39V [2], first compound 0.4 µg/mL, partner 0.02 µg/mL | 0.653
S. pneumoniae D39V [2], first compound 0.43 µg/mL, partner 0.0037 µg/mL | 0.629
S. pneumoniae D39V [2], first compound 0.43 µg/mL, partner 0.0075 µg/mL | 0.651
S. pneumoniae D39V [2], first compound 0.43 µg/mL, partner 0.015 µg/mL | 0.677
S. pneumoniae D39V [2], first compound 0.86 µg/mL, partner 0.0037 µg/mL | 0.34
S. pneumoniae D39V [2], first compound 0.86 µg/mL, partner 0.0075 µg/mL | 0.339
S. pneumoniae D39V [2], first compound 0.86 µg/mL, partner 0.015 µg/mL | 0.297

Conditions | Bliss interaction score
B. subtilis 168 [4] | -0.0143
S. aureus DSM 20231 [6] | 0.124
S. aureus Newman | 0.0565
S. pneumoniae D39V [5] | 0.0862

CCC[C@@H]1C[C@@H](C(=O)N[C@@H]([C@H]2O[C@H](SC)[C@H](O)[C@@H](O)[C@H]2O)[C@@H](C)O)N(C)C1 [Lincomycin] + COc1ccc(C[C@H](N)C(=O)N[C@H]2[C@@H](O)[C@H](n3cnc4c(N(C)C)ncnc43)O[C@@H]2CO)cc1 [Puromycin]
fitness
Conditions | first compound 0.1 µg/mL | first compound 0.2 µg/mL | first compound 0.215 µg/mL | first compound 0.4 µg/mL | first compound 0.43 µg/mL | first compound 0.86 µg/mL
B. subtilis 168 [1], partner 0.39 µg/mL | 0.867 | 0.869 | – | 0.854 | – | –
B. subtilis 168 [1], partner 0.78 µg/mL | 0.889 | 0.883 | – | 0.91 | – | –
B. subtilis 168 [1], partner 1.56 µg/mL | 0.873 | 0.866 | – | 0.843 | – | –
S. aureus DSM 20231 [3], partner 0.39 µg/mL | 0.877 | 0.806 | – | 0.304 | – | –
S. aureus DSM 20231 [3], partner 0.78 µg/mL | 0.935 | 0.776 | – | 0.303 | – | –
S. aureus DSM 20231 [3], partner 1.56 µg/mL | 0.906 | 0.759 | – | 0.253 | – | –
S. pneumoniae D39V [2], partner 1 µg/mL | – | – | 0.838 | – | 0.756 | 0.436
S. pneumoniae D39V [2], partner 2 µg/mL | – | – | 0.792 | – | 0.709 | 0.3
S. pneumoniae D39V [2], partner 4 µg/mL | – | – | 0.743 | – | 0.536 | 0.251

fitness, one replicate
Conditions | first compound 0.1 µg/mL | first compound 0.2 µg/mL | first compound 0.4 µg/mL | first compound 0.8 µg/mL
S. aureus DSM 20231 [3], partner 3.12 µg/mL | 0.822 | 0.489 | 0.207 | –
S. aureus DSM 20231 [3], partner 6.24 µg/mL | 0.282 | 0.217 | 0.093 | –
S. pneumoniae D39V [2], partner 1 µg/mL | – | 0.64 | 0.382 | 0.0776
S. pneumoniae D39V [2], partner 2 µg/mL | – | 0.621 | 0.325 | 0.127
S. pneumoniae D39V [2], partner 4 µg/mL | – | 0.275 | 0.083 | 0.0925

Conditions | Bliss interaction score
B. subtilis 168 [4] | -0.0436
S. aureus DSM 20231 [6] | -0.0648
S. aureus Newman | 0.0533
S. pneumoniae D39V [5] | -0.157
